Data as given in patent US6908904B2, “Pharmaceutical preparation and method for treatment of diabetes” (priority 2000, dated 2005).

Key:
insulin crystals = assay: in vitro preservation of insulin crystals stored with sulfatide isoforms; conditions: compared to C24:0 analogue, native pig brain sulfatide and insulin stored without sulfatide, FIG. 5
Source text: The preservation of insulin crystals, a requirement for storage of an insulin pool that can be released upon raised blood glucose, is increased for sulfatide C16:0 compared to other sulfatide isoforms. […] This is illustrated in FIG. 5.

[1] = uptake of radiolabeled sulfatide analogues in liver after intraperitoneal injection; type: in vivo; conditions: 150 nmol i.p., ob/ob mice, FIG. 6A; for degradation or accumulation in liver, 6 h vs 24 h: 6 h and 24 h after i.p.; for uptake in liver: tritium-labeled, scintillation counting
Source text: (§1) Native sulfatide isolated from pig brain and structurally characterized by mass spectrometry was modified with regard to the fatty acid composition and tritiated in the sphingosine base. These analogues were administrated intraperitoneally to diabetic ob/ob mice and their uptake in liver and pancreas analyzed after lipid extraction of dissected organs. The aim was to explore whether the exogenously administrated sulfatide was taken up by pancreas and thereby open a possibility to substitute for the quantitative and qualitative alterations of sulfatide seen in the diabetes type 2 models.
(§2) Sulfatide was tritium labeled in the ceramide portion by catalytic hydrogenation with Pd(OAc)2/NaB^3H4. The labeled sulfatide was mixed with unlabelled sulfatide to the required specific activity.
(§3) The fatty acid was removed from native pig brain sulfatide by weak alkaline methanolysis at 80° C. The formed lysosulfatide was, after chromatographic purification, reacylated with respective fatty acid chloride in aqueous sodium acetate-tetrahydrofuran.
(§4) These mice were 12 weeks old and the mean value of the highest blood glucose was […]. At sacrifice the mice were anaesthetized with CO2 and killed by dislocation of the neck vertebrae. This is outlined in Table 2. The liver and pancreas were dissected immediately. The organ were quick-frozen and thawed at analyses (within 4 days).
(§5) The organs were homogenized and the lipids extracted with chloroform/methanol/water. The lipid extracts were evaporated, re-dissolved in chloroform/methanol/water and separated by silica gel chromatography to remove other lipids. The sulfatide containing fraction was used for counting by scintillation.
(§6) The results of the scintillation measurement are presented in FIG. 6A and FIG. 6B—FIG. 6A presenting liver data and FIG. 6B pancreas data—as cpm uptake in total, cpm/mg wet weight of tissue, cpm/mg of tissue protein and % of given cpm residing in the organ

[2] = uptake of radiolabeled sulfatide analogues in pancreas after intraperitoneal injection; type: in vivo; conditions: 150 nmol i.p., ob/ob mice, FIG. 6B; for degradation or accumulation in pancreas, 6 h vs 24 h: 6 h and 24 h after i.p.; for uptake in pancreas: tritium-labeled, scintillation counting
Source text: as §1, §2, §3, §4, §5, §6

[3] = further uptake study of sulfatide analogues in pancreas (Example 3); type: in vivo; conditions: i.p., ob/ob mice; FIGS. 7-10
Protocol: These experiments were performed as in Example 3, but only the uptake in pancreas was studies.
ob/ob mice was thus given C12, C14, C16 och C18 analogues of sulfatide intraperitoneally in the way described above.
The results are illustrated in FIGS. 7-10.

[4] = test system: T-cell response to insulin; assay: T-cell response to insulin; type: cell-based; conditions: sulfatide in combination with insulin
Source text: The fact that sulfatide is processed through the same intracellular route as insulin further supports the findings according to the invention. Sulfatide is involved in normal processing of insulin, from proinsulin to secreted monomeric insulin. It is involved in the folding and oxidation of proinsulin, and is thus required for insulin formation, it is involved in the preservation of insulin crystals in secretory granules, and is thus required for the storage of the insulin pool, prevents deterioration and fibril formation, and it is involved in the transformation of insulin from hexamer via dimer to monomer form at secretion, and this last conversion to monomer is required for biological activity. Furthermore, sulfatide might be needed in combination with insulin in order to affect the insulin receptors in a proper way and to avoid development of insulin resistance.

[5] = listed as C16:0 sulfatide analogue

Row | degradation or accumulation in liver, 6 h vs 24 h [1] | uptake in liver [1] | degradation or accumulation in pancreas, 6 h vs 24 h ([2]; listed as C 16) | degradation or accumulation in pancreas, 6 h vs 24 h [2, 5] | uptake in pancreas ([2]; listed as C16) | uptake in pancreas [2, 5] | uptake in pancreas (Example 3) [3] | degradation or accumulation in pancreas, 6 h vs 24 h ([2]; listed as C8:0) | degradation or accumulation in pancreas, 6 h vs 24 h ([2]; listed as C24) | Molecule | preservation of insulin crystals (insulin crystals) | preservation of insulin crystals (insulin crystals; listed as isoform of sulfatide with 16 carbon atoms in the fatty acid) | uptake in liver ([1]; listed as C8:0) | degradation or accumulation in pancreas, 6 h vs 24 h [2] | uptake in pancreas [2] | T-cell response to insulin [4]
1 | slight accumulation | higher than for the C24:0 | accumulation | accumulation after 24 hours | efficiently taken up in pancreas | most efficiently taken up | most interesting results |  |  | CCCCCCCCCCCCC/C=C/[C@@H](O)[C@H](CO[C@@H]1O[C@H](CO)[C@H](O)[C@H](OS(=O)(=O)O)[C@H]1O)NC(=O)CCCCCCCCCCCCCCC [C16:0 analogue] | significant effect on the preservation | significant effect on the preservation of insulin crystals |  |  |  | 
2 | rapidly degraded | preferentially taken up in liver |  |  |  |  |  | no accumulation |  | CCCCCCCCCCCCC/C=C/[C@@H](O)[C@H](CO[C@@H]1O[C@H](CO)[C@H](O)[C@H](OS(=O)(=O)O)[C@H]1O)NC(=O)CCCCCCC [C8:0 analogue] |  |  | rapidly removed from circulation to the liver and degraded | neither accumulation or degradation was noticed | much lower than for the other two analogues | 
3 |  |  |  |  |  |  |  |  |  | galactosylceramide-3-O-sulfate [sulfatide] |  |  |  |  |  | inhibited the T-cell response to insulin

Row | Molecule | degradation or accumulation in liver, 6 h vs 24 h [1] | uptake in liver [1] | degradation or accumulation in pancreas, 6 h vs 24 h ([2]; listed as C 16) | degradation or accumulation in pancreas, 6 h vs 24 h [2, 5] | uptake in pancreas ([2]; listed as C16) | uptake in pancreas [2, 5] | uptake in pancreas (Example 3) [3] | degradation or accumulation in pancreas, 6 h vs 24 h ([2]; listed as C8:0) | degradation or accumulation in pancreas, 6 h vs 24 h ([2]; listed as C24) | preservation of insulin crystals (insulin crystals) | preservation of insulin crystals (insulin crystals; listed as isoform of sulfatide with 16 carbon atoms in the fatty acid) | uptake in liver ([1]; listed as C8:0) | degradation or accumulation in pancreas, 6 h vs 24 h [2] | uptake in pancreas [2] | T-cell response to insulin [4]
4 | CCCCCCCCCCCCC/C=C/[C@@H](O)[C@H](CO[C@@H]1O[C@H](CO)[C@H](O)[C@H](OS(=O)(=O)O)[C@H]1O)NC(=O)CCCCCCCCCCCCCCCCCCCCCCC [C24:0 analogue] | slight reduction | lower uptake in liver as compared to the C8:0 analogue |  |  |  |  |  |  | slight degradation |  |  |  | slight reduction | efficiently taken up in pancreas | 
